Measurements: PMC4338433 (Scientific Reports, 2015)

How the values were obtained:
AVR-14B GluCl R76N = assay: Two electrode voltage-clamp of Xenopus laevis oocytes expressing R76N mutant AVR-14B GluCl; assay type: cell-based, Haemonchus contortus
From the text: (§1) All mutant cDNAs were generated from AVR-14B cDNA in the T7 plasmid vector[45] by conventional PCR with Pfu DNA polymerase (Thermo Scientific, Germany) and commercially generated mutagenesis primers (Eurofins MWG Operon, Ebersberg, Germany). All cDNAs were sequenced to confirm the presence of appropriate mutations (Eurofins MWG Operon) and linearized with XbaI (Thermo Scientific). cRNAs were synthesized with the mMESSAGE mMACHINE T7 Kit (Life Technologies GmbH, Darmstadt, Germany). X. laevis oocytes were used for two electrode voltage-clamp electrophysiology as previously described[48] and under approval of the Technical University of Darmstadt (Agreement V54-19c20/15 DA8/Anz. 20). After 2–5 days, oocytes were perfused with extracellular solution (115 mM NaCl, 1 mM KCl, 1.8 mM CaCl2, 10 mM HEPES, pH 7.4 with NaOH) alone or containing agonist, and currents were sampled at 1 kHz and filtered at 500 Hz with a Digidata 1322A digitizer, Geneclamp 500B amplifier and Clampex software (Molecular Devices, Sunnyvale, CA, USA). […] Non-linear regression parameters were compared to the respective WT value with Student's unpaired t tests (Prism4).

[1] = target: H. contortus AVR-14B GluCl (wild-type) (Haemonchus contortus, UniProt O46124); assay type: cell-based; conditions: Wild-type AVR-14B GluCl, mean ± s.e.m.
From the text: as §1, with “20).” for “20). After 2–5 days, oocytes were perfused with extracellular solution (115 mM NaCl, 1 mM KCl, 1.8 mM CaCl2, 10 mM HEPES, pH 7.4 with NaOH) alone or containing agonist, and currents were sampled at 1 kHz and filtered at 500 Hz with a Digidata 1322A digitizer, Geneclamp 500B amplifier and Clampex software (Molecular Devices, Sunnyvale, CA, USA).”

AVR-14B GluCl A197E = assay: Two electrode voltage-clamp of Xenopus laevis oocytes expressing A197E mutant AVR-14B GluCl; assay type: cell-based, Haemonchus contortus
From the text: as §1

AVR-14B GluCl K219A = target: T1, AVR-14B GluCl K219A (Haemonchus contortus, UniProt O46124, K219A); conditions: K219A mutant, mean ± s.e.m.
T1 sequence (O46124 31-438 K219A): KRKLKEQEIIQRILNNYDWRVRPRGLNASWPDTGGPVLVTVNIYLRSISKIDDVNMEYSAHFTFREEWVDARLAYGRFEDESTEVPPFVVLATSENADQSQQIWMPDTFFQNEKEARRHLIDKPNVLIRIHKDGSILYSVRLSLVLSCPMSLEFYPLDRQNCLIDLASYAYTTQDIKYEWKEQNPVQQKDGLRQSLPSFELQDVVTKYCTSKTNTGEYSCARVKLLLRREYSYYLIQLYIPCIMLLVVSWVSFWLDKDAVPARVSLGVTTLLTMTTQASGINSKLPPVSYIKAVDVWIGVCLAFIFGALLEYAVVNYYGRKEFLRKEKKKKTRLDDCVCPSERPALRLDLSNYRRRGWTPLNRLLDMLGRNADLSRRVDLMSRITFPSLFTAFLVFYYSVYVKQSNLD
From the text: as §1, with “20).” for “20). After 2–5 days, oocytes were perfused with extracellular solution (115 mM NaCl, 1 mM KCl, 1.8 mM CaCl2, 10 mM HEPES, pH 7.4 with NaOH) alone or containing agonist, and currents were sampled at 1 kHz and filtered at 500 Hz with a Digidata 1322A digitizer, Geneclamp 500B amplifier and Clampex software (Molecular Devices, Sunnyvale, CA, USA).”

[2] = target: T2, AVR-14B GluCl R76N/Q141R/K219A (RN/QR/KA) (Haemonchus contortus, UniProt O46124, K219A/Q141R/R76N); conditions: R76N/Q141R/K219A triple-mutant; mean ± s.e.m.
T2 sequence (O46124 31-438 R76N/Q141R/K219A): T1 sequence (O46124 31-438 K219A)
From the text: as §1, with “20).” for “20). After 2–5 days, oocytes were perfused with extracellular solution (115 mM NaCl, 1 mM KCl, 1.8 mM CaCl2, 10 mM HEPES, pH 7.4 with NaOH) alone or containing agonist, and currents were sampled at 1 kHz and filtered at 500 Hz with a Digidata 1322A digitizer, Geneclamp 500B amplifier and Clampex software (Molecular Devices, Sunnyvale, CA, USA).”

AVR-14B GluCl T245A = target: T3, AVR-14B GluCl T245A (Haemonchus contortus, UniProt O46124, T245A); conditions: T245A mutant, mean ± s.e.m.
T3 sequence (O46124 31-438 T245A): T1 sequence (O46124 31-438 K219A)
From the text: as §1, with “20).” for “20). After 2–5 days, oocytes were perfused with extracellular solution (115 mM NaCl, 1 mM KCl, 1.8 mM CaCl2, 10 mM HEPES, pH 7.4 with NaOH) alone or containing agonist, and currents were sampled at 1 kHz and filtered at 500 Hz with a Digidata 1322A digitizer, Geneclamp 500B amplifier and Clampex software (Molecular Devices, Sunnyvale, CA, USA).”

AVR-14B GluCl Q141R = target: T4, AVR-14B GluCl Q141R (Haemonchus contortus, UniProt O46124, Q141R); conditions: Q141R mutant; mean ± s.e.m.
T4 sequence (O46124 31-438 Q141R): T1 sequence (O46124 31-438 K219A)
From the text: as §1, with “20).” for “20). After 2–5 days, oocytes were perfused with extracellular solution (115 mM NaCl, 1 mM KCl, 1.8 mM CaCl2, 10 mM HEPES, pH 7.4 with NaOH) alone or containing agonist, and currents were sampled at 1 kHz and filtered at 500 Hz with a Digidata 1322A digitizer, Geneclamp 500B amplifier and Clampex software (Molecular Devices, Sunnyvale, CA, USA).”

AVR-14B GluCl Y248F = target: T5, AVR-14B GluCl Y248F (Haemonchus contortus, UniProt O46124, Y248F); conditions: Y248F mutant, mean ± s.e.m.
T5 sequence (O46124 31-438 Y248F): T1 sequence (O46124 31-438 K219A)
From the text: as §1, with “20).” for “20). After 2–5 days, oocytes were perfused with extracellular solution (115 mM NaCl, 1 mM KCl, 1.8 mM CaCl2, 10 mM HEPES, pH 7.4 with NaOH) alone or containing agonist, and currents were sampled at 1 kHz and filtered at 500 Hz with a Digidata 1322A digitizer, Geneclamp 500B amplifier and Clampex software (Molecular Devices, Sunnyvale, CA, USA).”

AVR-14B GluCl S169A = target: T6, AVR-14B GluCl S169A (Haemonchus contortus, UniProt O46124, S169A); conditions: S169A mutant, mean ± s.e.m.
T6 sequence (O46124 31-438 S169A): T1 sequence (O46124 31-438 K219A)
From the text: as §1, with “20).” for “20). After 2–5 days, oocytes were perfused with extracellular solution (115 mM NaCl, 1 mM KCl, 1.8 mM CaCl2, 10 mM HEPES, pH 7.4 with NaOH) alone or containing agonist, and currents were sampled at 1 kHz and filtered at 500 Hz with a Digidata 1322A digitizer, Geneclamp 500B amplifier and Clampex software (Molecular Devices, Sunnyvale, CA, USA).”

AVR-14B GluCl Y199F = assay: Two electrode voltage-clamp of Xenopus laevis oocytes expressing Y199F mutant AVR-14B GluCl; assay type: cell-based, Haemonchus contortus; conditions: 1 μM ivermectin, mean ± s.e.m.
From the text: as §1

AVR-14B GluCl R95A = assay: Two electrode voltage-clamp of Xenopus laevis oocytes expressing R95A mutant AVR-14B GluCl; assay type: cell-based, Haemonchus contortus; conditions: 1 μM ivermectin, mean ± s.e.m.
From the text: as §1

Row | Compound | Gating by glutamate (AVR-14B GluCl R76N; glutamate up to 100 mM) | Glutamate nH ([1]; Hill coefficient) | Glutamate Imax ([1]; maximum glutamate-gated current) | Glutamate-gated currents (AVR-14B GluCl A197E; effect of the A197E substitution) | Glutamate nH (AVR-14B GluCl K219A; Hill coefficient) | Glutamate Imax (AVR-14B GluCl K219A) | Glutamate Imax [2] | Glutamate nH (AVR-14B GluCl T245A; Hill coefficient) | Glutamate Imax (AVR-14B GluCl T245A) | Glutamate Imax (AVR-14B GluCl Q141R) | Glutamate nH (AVR-14B GluCl Y248F; Hill coefficient) | Glutamate Imax (AVR-14B GluCl Y248F) | Glutamate nH (AVR-14B GluCl S169A; Hill coefficient) | Glutamate Imax (AVR-14B GluCl S169A) | Ivermectin Imax (AVR-14B GluCl Y199F) | Ivermectin Imax (AVR-14B GluCl R76N; 1 μM ivermectin, mean ± s.e.m.) | Ivermectin Imax ([1]; 1 μM ivermectin) | Ivermectin Imax (AVR-14B GluCl A197E; 1 μM ivermectin, A197E mutant, mean ± s.e.m.) | Ivermectin Imax (AVR-14B GluCl R95A)
1 | N[C@@H](CCC(=O)O)C(=O)O [Glutamate] | not substantially gated | 1.7 ± 0.2 | 3.1 ± 0.3 μA | abolished | 2.1 ± 0.4 | 3.3 ± 0.5 μA | 2.3 ± 0.3 μA | 2.0 ± 0.1 | 5.5 ± 0.8 μA | 1.1 ± 0.4 μA | 1.9 ± 0.2 | 4.3 ± 0.8 μA | 1.8 ± 0.2 | 4.3 ± 1.1 μA |  |  |  |  | 
2 | Ivermectin |  |  |  |  |  |  |  |  |  |  |  |  |  |  | 0.7 ± 0.2 μA | 3.6 ± 1.0 μA | 2.4 ± 0.4 μA | 2.4 ± 0.7 μA | 4.8 ± 1.9 μA
